Laboratory results taken from patent US10206398B2, “Five-membered C-N-attached aryl sulphide and aryl sulphoxide derivatives as pesticides” (BAYER CROPSCIENCE AKTIENGESELLSCHAFT, priority 2014, dated 2019).

Key:
Meloidogyne incognita = Meloidogyne incognita - test; assay type: in vivo; conditions: 20 ppm, lettuce, after 14 days
[1] = log P determination by HPLC on reversed-phase columns (C 18), analogous to OECD Guideline 117; assay type: physicochemical; conditions: for logP[a]: method [a]; for logP[b]: method [b]
Summary of the method: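 Reversed-phase C18 HPLC per OECD 117, two conditions: [a] pH 2.7, 0.1% formic acid water/acetonitrile, log P(HCOOH); [b] pH 7.8, 0.001 M ammonium hydrogencarbonate/acetonitrile, log P(neutral). Both use a 10–95% acetonitrile gradient; values are interpolated from retention times against C3–C16 unbranched alkan-2-ones.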

Tetranychus urticae [2] = assay: Tetranychus urticae - spray test, OP-resistant (bean leaf discs, 6 days); assay type: in vivo; conditions: 500 g/ha, after 6 days
Summary of the method: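 Bean leaf discs carrying all stages of OP-resistant Tetranychus urticae were sprayed with compound formulated in acetone/DMF and diluted in water with 1000 ppm emulsifier. Mortality was scored after 6 days as % efficacy, where 100% means all mites were killed.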

Phaedon cochleariae = Phaedon cochleariae - spray test; assay type: in vivo; conditions: 500 g/ha, Chinese cabbage leaf discs, after 7 days
Description: 4. Phaedon cochleariae—Spray Test
Solvent: 78.0 parts by weight of acetone
• 1.5 parts by weight of dimethylformamide Emulsifier: alkylaryl polyglycol ether
To produce a suitable preparation of active compound, 1 part by weight of active compound is dissolved using the stated parts by weight of solvent and made up with water containing an emulsifier concentration of 1000 ppm until the desired concentration is attained. To produce further test concentrations, the preparation is diluted with emulsifier-containing water.
After 7 days, the efficacy in % is determined. 100% means that all the beetle larvae have been killed; 0% means that no beetle larvae have been killed.

Boophilus microplus = Boophilus microplus - injection test; assay type: in vivo; conditions: 20 μg/animal, injection into engorged adult female cattle ticks, assessed after 7 days
Description: 1. Boophilus microplus—Injection Test
Solvent: dimethyl sulphoxide
To produce a suitable preparation of active compound, 10 mg of active compound are mixed with 0.5 ml of solvent and the concentrate is diluted with solvent to the desired concentration.
1 μl of the active compound solution is injected into the abdomen of 5 engorged adult female cattle ticks (Boophilus microplus). The animals are transferred into dishes and kept in a climate-controlled room.
Efficacy is assessed after 7 days by laying of fertile eggs. Eggs which are not visibly fertile are stored in a climate-controlled cabinet until the larvae hatch after about 42 days. An efficacy of 100% means that none of the ticks has laid any fertile eggs; 0% means that all the eggs are fertile.

Tetranychus urticae [3] = assay: Tetranychus urticae - spray test, OP-resistant (bean plants, 7 days); assay type: in vivo; conditions: 20 ppm, after 7 days
Description: 6. Tetranychus urticae—Spray Test, OP-Resistant
Solvent: 7 parts by weight of dimethylformamide
Emulsifier: alkylaryl polyglycol ether
To produce a suitable preparation of active compound, 1 part by weight of active compound is dissolved using the stated parts by weight of solvent and made up with water containing an emulsifier concentration of 1000 ppm until the desired concentration is attained. To produce further test concentrations, the preparation is diluted with emulsifier-containing water. If the addition of ammonium salts or/and penetrants is required, these are each added in a concentration of 1000 ppm to the formulation solution.
Bean plants (Phaseolus vulgaris) heavily infested by all stages of the greenhouse red spider mite (Tetranychus urticae) are treated by spraying with the active compound preparation of the desired concentration.
After 7 days, the efficacy in % is determined. 100% means that all the spider mites have been killed; 0% means that no spider mites have been killed.

Myzus persicae = Myzus persicae - spray test; assay type: in vivo; conditions: 500 g/ha, Chinese cabbage leaf discs, after 6 days
Description: 3. Myzus persicae—Spray Test Solvent: 78 parts by weight of acetone • • 1.5 parts by weight of dimethylformamide Emulsifier: alkylaryl polyglycol ether To produce a suitable preparation of active compound, 1 part by weight of active compound is dissolved using the stated parts by weight of solvent and made up with water containing an emulsifier concentration of 1000 ppm until the desired concentration is attained. To produce further test concentrations, the preparation is diluted with emulsifier-containing water. Discs of Chinese cabbage leaves (Brassica pekinensis) infested by all stages of the green peach aphid (Myzus persicae) are sprayed with an active compound preparation of the desired concentration. After 6 days, the efficacy in % is determined. 100% means that all the aphids have been killed; 0% means that no aphids have been killed.

Row | SMILES | nematicidal efficacy (formation of galls) (Meloidogyne incognita) | logP[a] [1] | logP[b] [1] | efficacy (spider mites killed) (Tetranychus urticae [2]) | efficacy (beetle larvae killed) (Phaedon cochleariae) | efficacy (laying of fertile eggs) (Boophilus microplus) | efficacy (spider mites killed) (Tetranychus urticae [3]) | efficacy (aphids killed) (Myzus persicae)
1 | Cc1cc(Cl)c(N2C(=O)CN(C(=O)Nc3cccc(CC(F)(F)F)c3)C2=O)cc1[S+]([O-])CC(F)(F)F (racemic) [compound 71] | 90% | 3.68 | 3.64 | 100% | 100% |  |  | 
2 | Cc1cc(Cl)c(N2C(=O)CN(C(=O)Nc3cccc(Cl)c3)C2=O)cc1[S+]([O-])CC(F)(F)F (racemic) [compound 72] | 90% | 3.55 | 3.50 | 100% | 100% | 100% |  | 
3 | Cc1cc(F)c(N2C(=O)C(C)N(C(=O)NCC(F)(F)F)C2=O)cc1SCC(F)(F)F (racemic) [compound 79] |  | 3.55 | 3.56 | 100% | 100% | 100% |  | 
4 | Cc1cc(F)c(N2C(=O)CN(C(=O)NCC(F)(F)F)C2=O)cc1[S+]([O-])CC(F)(F)F (single isomer, unassigned) [Ex. No. 136] |  | 2.4 | 2.43 |  |  |  | 100% | 
5 | Cc1cc(F)c(N2C(=O)CN(C(=O)Nc3cccc(CC(F)(F)F)c3)C2=O)cc1[S+]([O-])CC(F)(F)F (centres unmarked) [compound 43] | 100% | 3.45 | 3.41 | 100% | 83% | 100% |  | 
6 | Cc1cc(F)c(N2C(=O)CN(C(=O)Nc3cccc(F)c3)C2=O)cc1[S+]([O-])CC(F)(F)F (centres unmarked) [compound 46] |  | 3.02 | 2.97 | 100% |  | 100% |  | 90%
7 | Cc1cc(F)c(N2C(=O)CN(C(=O)Nc3cccc(Cl)c3)C2=O)cc1[S+]([O-])CC(F)(F)F (centres unmarked) [compound 48] | 90% | 3.31 | 3.25 | 100% | 83% | 100% |  | 
8 | Cc1cc(F)c(N2C(=O)CN(C(=O)NC(C)(C)C)C2=O)cc1SCC(F)(F)F [compound 54] | 100% | 3.84 | 3.71 | 100% | 100% | 100% |  | 
9 | CCC(C)(C)NC(=O)N1CC(=O)N(c2cc(SCC(F)(F)F)c(C)cc2F)C1=O [compound 101] | 90% | 4.09 | 3.96 | 100% | 83% |  |  | 
